Measurements published in the METLIN SMRT retention time set (Domingo-Almenara et al. 2019).

Assay: gradient 5% acetonitrile 3 min, to 50% in 2 min, to 85% in 15 min, held 3 min, 100 µL/min
Conditions: column: Zorbax Extend-C18 2.1 x 50 mm; eluents: water / acetonitrile, 0.1% formic acid
Outline: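 Mixtures of ~100 pure standards were chromatographed on a Zorbax Extend-C18 column (2.1 × 50 mm, 1.8 μm) at 100 μL/min using water and acetonitrile, each with 0.1% formic acid. Detection used a quadrupole time-of-flight mass spectrometer in positive and negative ionization mode, and data collection spanned 3 months. Retention time was obtained from adduct peaks picked computationally and each checked manually.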

SMILES: CC1CCN(S(=O)(=O)c2ccc3nc(N4CCN(C5CCCCC5)CC4)ccc3c2)CC1
- RP-LC retention time: 776 s

SMILES: CC(CNC(=O)CCn1c(N2CCCC2)nc2ccsc2c1=O)c1ccccc1 (stereo not drawn)
- RP-LC retention time: 819 s

SMILES: Cc1cc(=O)n(CC(=O)Nc2cccc(C#N)c2)c(-c2ccc(F)cc2)n1
- RP-LC retention time: 995 s

SMILES: Cc1c(C(=O)N2CCN(C)CC2)sc2ncnc(N3CCN(c4ccccn4)CC3)c12
- RP-LC retention time: 523 s

SMILES: O=C1COc2ccc(S(=O)(=O)N3CCC(C(=O)Nc4cccc(Br)c4)CC3)cc2N1
- RP-LC retention time: 859 s

SMILES: O=C(Nc1c(C(=O)NCCc2ccccc2)[nH]c2ccc(F)cc12)c1ccccc1
- RP-LC retention time: 998 s

SMILES: CN(C)CCOc1ccc2c(c1)C(=O)/C(=C\c1ncc([N+](=O)[O-])n1C)C2
- RP-LC retention time: 695 s

SMILES: COc1ccccc1NC(=O)Cc1csc2nc(-c3ccccc3)cn12
- RP-LC retention time: 786 s

SMILES: O=C(C1CC1)N1CCc2sc(S(=O)(=O)Nc3ccc(Cl)cc3)cc2C1
- RP-LC retention time: 853 s

SMILES: COc1ccc(CC(=O)N2CCc3cc(-c4ccno4)ccc32)cc1
- RP-LC retention time: 909 s

SMILES: Cc1ccc(C(=O)NCc2nn(C)c3ccccc23)c(C)c1
- RP-LC retention time: 857 s

SMILES: Cn1cc(CC(=O)N2CCN(S(=O)(=O)C3CC3)CC2)c2ccccc21
- RP-LC retention time: 577 s

SMILES: Cc1ccn2cc(C(=O)NC3CCCCC3)nc2c1
- RP-LC retention time: 627 s

SMILES: CC(C)NC(=O)C1CCN(S(=O)(=O)c2cc(-c3noc(C4CCC4)n3)cs2)CC1
- RP-LC retention time: 913 s

SMILES: COc1ccccc1-c1noc(Cn2c(=O)n(Cc3ccc4c(c3)OCO4)c(=O)c3sccc32)n1
- RP-LC retention time: 956 s

SMILES: CC(C)c1nc(N(C)Cc2ccccc2)ncc1C(=O)O
- RP-LC retention time: 1030 s

SMILES: CCc1noc(NC(C)=O)c1-c1ccc(C)c(S(=O)(=O)NC2CCCCCCC2)c1
- RP-LC retention time: 959 s

SMILES: Cc1c(C(=O)NCC2CC2)cnn1-c1cc(-c2nc(C(C)C)no2)ccn1
- RP-LC retention time: 1020 s

SMILES: O=C(NCc1cccc(F)c1)C1CCN(c2cnc(N3CCSCC3)nc2)CC1
- RP-LC retention time: 793 s

SMILES: Cc1c(-c2nsc(Nc3ccccc3)n2)nnn1-c1cccc(Cl)c1
- RP-LC retention time: 1070 s

SMILES: COc1ccc(C2(C(=O)N3CCC(n4c(C)cnc4C4CCC4)CC3)CC2)cc1
- RP-LC retention time: 662 s

SMILES: CCc1cc(=O)n(CC(=O)Nc2ccc3c(c2)OCCO3)c(-c2cccc(F)c2)n1
- RP-LC retention time: 1090 s

SMILES: COc1cccc(-n2c(=O)c3sccc3n(Cc3nc(-c4ccc(OC(C)C)cc4)no3)c2=O)c1
- RP-LC retention time: 1080 s

SMILES: Cc1nn(-c2ccc(F)cc2)c(C)c1S(=O)(=O)N1CCC(C(=O)N2CCCC2)CC1
- RP-LC retention time: 790 s

SMILES: CCOc1ccc(CNC(=O)c2cc(S(=O)(=O)N3CCCC3)c(C)n2C)cc1
- RP-LC retention time: 902 s

SMILES: Cc1ccc(N2CC(c3nc(-c4ccc5c(c4)ncn5CCC(=O)N4CCCC4)no3)CC2=O)cc1 (stereo not drawn)
- RP-LC retention time: 676 s

SMILES: CCCN(C(=O)c1ccccc1F)c1nc(-c2ccc(C)cc2)cs1
- RP-LC retention time: 1410 s

SMILES: O=S(=O)(Cc1ccccc1)N1CC(n2cc(COc3ccc(F)cc3)nn2)C1
- RP-LC retention time: 899 s

SMILES: CCOc1ccc(S(=O)(=O)NCCC(O)C(C)(C)C)cc1F (stereo not drawn)
- RP-LC retention time: 826 s

SMILES: CCn1c(CCNC(=O)c2ccccc2)nc2cccnc21
- RP-LC retention time: 598 s

SMILES: Cn1c(C2CCN(C(=O)Nc3cccc(Br)c3)CC2)cc(=O)n2nccc12
- RP-LC retention time: 714 s

SMILES: O=C(c1cccs1)N1CCn2c(nnc2-c2ccccc2)C1
- RP-LC retention time: 656 s

SMILES: Cc1cc(C)cc(N2CC(C)Cn3c2nc2c3c(=O)n(CC(=O)O)c(=O)n2C)c1 (stereo not drawn)
- RP-LC retention time: 826 s

SMILES: O=C(Nc1ccc(-c2cn3cccnc3n2)cc1)C1CCCC1
- RP-LC retention time: 648 s

SMILES: COCc1cc(=O)n(CC(=O)Nc2ccc(C(C)C)cc2)c(N2CCOCC2)n1
- RP-LC retention time: 960 s

SMILES: CCOc1ccc(/C=C/C(=O)Nc2nc(-c3ccc4c(c3)N(C)C(=O)CO4)cs2)cc1OC
- RP-LC retention time: 985 s

SMILES: CC1CCCN(c2cc(SCC(=O)Nc3ccc(F)cc3)ncn2)C1 (stereo not drawn)
- RP-LC retention time: 955 s

SMILES: Cc1ccc(NC(=O)N2CCN(C(=O)N3C[C@H]4C[C@H](C3)[C@H]3CCCC(=O)N3C4)CC2)cc1C
- RP-LC retention time: 698 s

SMILES: O=C(NCc1ccccn1)C1CCN(C(=O)c2ncn3c2COC(c2ccc(F)cc2)C3)CC1 (stereo not drawn)
- RP-LC retention time: 622 s

SMILES: Cc1nnc2c(=O)n(CC(=O)NCc3ccccc3Cl)c3cccnc3n12
- RP-LC retention time: 693 s

SMILES: Cc1ccccc1Oc1nccn2c(=O)n(CC(=O)Nc3ccccc3F)nc12
- RP-LC retention time: 853 s

SMILES: CCNC(=O)c1cc(C(C)C)[nH]n1
- RP-LC retention time: 618 s

SMILES: Cn1nc(-c2ccc(F)cc2)cc1C(=O)NCc1n[nH]c(=O)c2ccccc12
- RP-LC retention time: 694 s

SMILES: O=C(CN1C(=O)C2CCCCN2C(=O)c2ccccc21)Nc1ccc(C(F)(F)F)cc1 (stereo not drawn)
- RP-LC retention time: 890 s

SMILES: CCNC(=O)c1cc2c(-c3cc(OCCN4CCCC4)c(Cl)cc3Cl)nc(N)nc2s1
- RP-LC retention time: 711 s

SMILES: Cc1ccnc(NC(=O)C2CCN(S(=O)(=O)c3cc(C(=O)N4CCCCCC4)cs3)CC2)c1
- RP-LC retention time: 638 s

SMILES: CCS(=O)(=O)c1nc2ccc(NS(=O)(=O)c3cc(F)ccc3F)cc2s1
- RP-LC retention time: 854 s

SMILES: O=C(NCC1CC1)c1c(O)c2cccnc2n(Cc2ccccc2)c1=O
- RP-LC retention time: 1310 s

SMILES: COc1ccc(Cl)cc1C(=O)N1CCN=C1SCc1cccnc1
- RP-LC retention time: 578 s

SMILES: Cc1ccccc1Nc1c(-c2cccc(Cl)c2)nc2cnccn12
- RP-LC retention time: 1000 s

SMILES: Cc1ccc(-n2c(C)c(C)c3c(=O)n(CC(=O)N(C)Cc4ccco4)cnc32)cc1
- RP-LC retention time: 907 s

SMILES: O=C(COc1ccccc1)N1CCN(C(=O)c2nnn3c2COC(c2ccccc2)C3)CC1 (stereo not drawn)
- RP-LC retention time: 850 s

SMILES: Cc1cccc(CNC(=O)C2(C)Cn3cnc(C(=O)NC4CCCC4)c3C(=O)N2C2CC2)c1 (stereo not drawn)
- RP-LC retention time: 767 s

SMILES: CCN(CC)C(=O)c1cnc2nc(C)ccc2c1Nc1ccc(S(N)(=O)=O)cc1
- RP-LC retention time: 574 s

SMILES: CCN(C(=O)c1ccc(C)cc1)c1nc(-c2ccc(C)cc2)cs1
- RP-LC retention time: 1320 s

SMILES: Cc1nc(C)c(C(=O)NC2CCN(c3ccc(=O)n(CCOc4ccccc4)n3)C2)s1 (stereo not drawn)
- RP-LC retention time: 703 s

SMILES: O=C(NCCc1ccc(N2CCCC2)cc1)c1ccccc1
- RP-LC retention time: 704 s

SMILES: Cc1noc(CNC(=O)c2cc(-c3cccs3)[nH]n2)n1
- RP-LC retention time: 641 s

SMILES: COc1nc2ccccc2nc1N1CCCC(C(=O)N2CCN(c3ccccc3Cl)CC2)C1 (stereo not drawn)
- RP-LC retention time: 1360 s

SMILES: CC(Oc1ccccc1)C(=O)NCCCn1cccc1 (stereo not drawn)
- RP-LC retention time: 783 s

SMILES: CCOC(=O)C1CCN(S(=O)(=O)c2cccc(-c3nc(-c4ccccc4)no3)c2)CC1
- RP-LC retention time: 1210 s

SMILES: CCN1C(=O)C2(c3ccccc31)c1[nH]c3ccccc3c1CCN2C(C)=O (stereo not drawn)
- RP-LC retention time: 779 s

SMILES: Cc1cc(N2CCN(C(=O)Nc3ccc(C)c(Cl)c3)CC2)nc(N2CCOCC2)n1
- RP-LC retention time: 688 s

SMILES: CCN(CC)CCCC(C)Nc1nc(C)nc2cc(Cl)ccc12 (stereo not drawn)
- RP-LC retention time: 769 s

SMILES: CCc1nn2c(CNS(=O)(=O)c3ccc(F)c(C)c3)c(-c3ccccc3)nc2s1
- RP-LC retention time: 974 s

SMILES: Fc1ccccc1N1CCN(c2ncc3c(n2)CCN(Cc2cccc(F)c2F)C3)CC1
- RP-LC retention time: 826 s

SMILES: Cc1ccc(NC(=O)CNS(=O)(=O)c2cc(-c3noc(C)n3)sc2C)nc1
- RP-LC retention time: 730 s

SMILES: O=C1CN(S(=O)(=O)c2ccccc2F)CC2(CCCCC2)N1C1CCCC1
- RP-LC retention time: 1140 s

SMILES: O=C(NCC(c1cccs1)S(=O)(=O)c1cccs1)NC1CCCCC1 (stereo not drawn)
- RP-LC retention time: 790 s

SMILES: CCCc1ccc(S(=O)(=O)N2CCCC2c2nc(-c3cccc(C)c3)no2)cc1 (stereo not drawn)
- RP-LC retention time: 1330 s

SMILES: CC1=C(c2ccc(C)cc2)S(=O)(=O)N=C1N1CCC(NC(=O)Cc2cccs2)CC1
- RP-LC retention time: 858 s

SMILES: CCC(=O)N1CCc2cc(-c3ccc(C(=O)N4CCN(c5ccccn5)CC4)cc3)ccc21
- RP-LC retention time: 653 s

SMILES: Cc1ccnc(Nc2nc(-c3ccc(F)c(C)c3)cs2)c1
- RP-LC retention time: 906 s

SMILES: Cc1ccc(-c2ccc(=O)n(Cc3nc(-c4ccc(F)cc4)no3)n2)cc1
- RP-LC retention time: 1090 s

SMILES: Cc1ccc(C)c2c(=O)c3c([nH]c12)CCN(CC(=O)Nc1ccccc1F)C3
- RP-LC retention time: 641 s

SMILES: Cc1ccccc1-c1noc(-c2cccn(CC(=O)NC(C)C)c2=O)n1
- RP-LC retention time: 761 s

SMILES: Cc1ccc(NC(=O)N2CCCC(Cn3cnc4cccnc43)C2)c(C)c1 (stereo not drawn)
- RP-LC retention time: 680 s

SMILES: CCC(C)NC(=O)NC1CCN(C2=NS(=O)(=O)C(c3cccc(Cl)c3)=C2C)CC1 (stereo not drawn)
- RP-LC retention time: 814 s

SMILES: CCc1nc2cc(-c3noc(-c4cc5ccccc5oc4=O)n3)ccc2o1
- RP-LC retention time: 1010 s

SMILES: CCN1CCN(CCNC(=O)c2csc(-c3ccc(N4CCCC4)nc3)n2)CC1
- RP-LC retention time: 550 s

SMILES: O=C(Cn1ccn2nc(-c3ccccc3)c(CO)c2c1=O)NCc1ccc2c(c1)OCO2
- RP-LC retention time: 738 s

SMILES: O=C1COc2cc(S(=O)(=O)N3CCCC3C(=O)NCCN3CCCC3)c(Cl)cc2N1 (stereo not drawn)
- RP-LC retention time: 567 s

SMILES: Cc1c(C(=O)Nc2ccc(CC(=O)NC3CC3)cc2)cnn1-c1ccccc1
- RP-LC retention time: 675 s

SMILES: Cc1ccc(NC(=O)Cn2c(C(C)C)nc3c(c2=O)CCN(Cc2ccccc2)C3)cc1F
- RP-LC retention time: 740 s

SMILES: Cc1cccc(N2C(=O)CN(CC(C)C)[C@H]3CS(=O)(=O)C[C@H]32)c1
- RP-LC retention time: 836 s

SMILES: O=C1c2cccc3c2[C@@H](CCC3)CN1[C@@H]1CN2CCC1CC2
- RP-LC retention time: 664 s

SMILES: CSc1cccc(NC(=O)C2CCN(C(=O)C3Sc4ccccc4NC3=O)CC2)c1 (stereo not drawn)
- RP-LC retention time: 814 s

SMILES: NC(=O)C1CCN(C(=O)CN2CCc3ccccc32)CC1
- RP-LC retention time: 610 s
